Experimental findings from patent US8980934B2, “Kinase inhibitors and method of treating cancer with same” (University Health Network, priority 2012, dated 2015) are described below.

Common to all, as to type: cell-based
In assay [1] the test system is PA-1 ovarian cancer cells. Put plainly: Cancer cell growth inhibition, Sulforhodamine B assay. The conditions noted are these: 120 h; PA-1, 5 days culture, SRB; read-out: Cancer Cell Line GI50 Range PA-1. The procedure:
(§1) Breast cancer cells (MDA-MB-231), colon cancer cells (HCT116) and ovarian cancer cells (PA-1) were seeded (1000 to 4000 in 80 μl per well depending on the cell growth rate) into 96 well plates 24 hours before compound overlay. Compounds were prepared as 10 mM stock solutions in 100% DMSO which were diluted with DMEM (Dulbecco's Modified Eagle's Medium) cell growth Medium (Invitrogen, Burlington, ON, Canada) containing 10% FBS (Fetal Bovine Serum) to concentrations ranging from 50 nM to 250 μM. Aliquots (20 μl) from each concentration were overlaid to 80 μl of the pre-seeded cells in the 96 well plates to make final concentrations of 10 nM to 50 μM. The cells were cultured for 5 days before the Sulforhodamine B assay (SRB) was performed to determine the compound's cell growth inhibition activity.
(§2) Sulforhodamine B (purchased from Sigma, Oakville, ON, Canada) is a water-soluble dye that binds to the basic amino acids of the cellular proteins. Thus, colorimetric measurement of the bound dye provides an estimate of the total protein mass that is related to the cell number. the cells are fixed in situ by gently aspirating off the culture media and adding 50 μl ice cold 10% Trichloroacetic Acid (TCA) per well and incubate at 4° C. for 30-60 min. The plates are washed with H2O five times and allowed to air dry for 5 min. Addition of 50 μl 0.4% (w/v) SRB solution in 1% (v/v) acetic acid to each well and incubatation for 30 min at RT completes the staining reaction. Following staining, plates are washed four times with 1% acetic acid to remove unbound dye and then allowed to air dry for 5 min. The stain is solubilized with 100 μl of 10 mM Tris pH 10.5 per well. Absorbance is read at 570 nm.
(§3) The percentage (%) of relative growth inhibition was calculated by comparing to DMSO treated only cells (100%). GI50's were determined for compounds with cytotoxic activity. The GI50 was calculated using GraphPad PRISM software (GraphPad Software, Inc., San Diego, Calif., USA). GI50 (growth inhibition) is the compound concentration that causes 50% inhibition of cell growth.
(§4) In Table 1 below, GI50 value ranges for several compound examples against breast cancer cell lines (MDA-MB-231), colon cancer cell lines (HCT116) and ovarian cancer cell lines (PA-1) are given. […] The GI50 ranges are indicated as “A,” “B,” and “C,” for values less than or equal to 0.1 μM; those greater than 0.1 μM and less than or equal to 0.5 μM; and those greater than 0.5 μM, respectively.

In assay [2] the test system is MDA-MB-231 breast cancer cells. Described as above. The conditions noted are these: Homo sapiens, 120 h; MDA-MB-231, 5 days culture, SRB; read-out: Cancer Cell Line GI50 Range MDA-MB-231. The procedure: as §1, §2, §3, §4
Assay [3] relates to HCT116 colon cancer cells. Described as above. To be noted: Homo sapiens, HCT-116, 120 h; HCT116, 5 days culture, SRB; read-out: Cancer Cell Line GI50 Range HCT116. The protocol:
as §1, §2, §3, §4

The test system of assay [4] is ovarian 2393A tumor initiating cells. In words: Ovarian tumor-initiating cell growth inhibition, Alamar Blue assay. To be noted: 144 h, ovarian TICs, 6 days culture, read-out: Tumor Initiating Cell Line GI50 Range ovarian 2393A. From the text:
(§5) Non-tissue or tissure cultured treated T-75 flask and 96-well plates were purchased from VWR. Vitamin B-27 supplement, MEM NEAA (minimum essential medium non essential amino acids), sodium pyruvate, L-glutamine, N2 supplement, penicillin-streptomycin and fungizone/amphotericin B were obtained from Invitrogen. Lipid mixture, heparin and EGF were purchased from Sigma; bFGF from BD Biosciences. Colon tumor initiating cells (TICs) were routinely maintained using non-tissue cultured treated T-75 flasks in DMEM:F12 medium containing 0.2XB-27 supplement, 4 ug/ml heparin, 1XMEM NEAA, 1Xsodium pyruvate, 1 mM glutamine, 10 pg/ul bFGF, 20 pg/ul EGF, 1×N2 supplement, lipid mixture, penicillin-streptomycin and fungizone/amphotericin B. Ovarian TICs were routinely maintained using tissue cultured treated T-75 flasks in DMEM:F12 medium containing 1XB-27 supplement, 4 ug/ml heparin, 20 pg/ul bFGF, 20 pg/ul EGF and penicillin-streptomycin.
(§6) Compounds described herein were dissolved in DMSO and further diluted in cell culture medium for GI50 determination. Colon TICs were trypsinized and seeded into non-tissue cultured treated 96-well plates with 4,000 cells/well. After 24 h, compound was added into the cell culture at different concentrations, and the final concentration of DMSO was adjusted to 0.1%. Cells were then cultured at 37° C. for 9 days. Ovarian TICs were trypsinized and seeded into tissue cultured treated 96-well plates with 1,000 cells/well. After 24 h, compound was added into the cell culture at different concentrations, and the final concentration of DMSO was adjusted to 0.1%. Cells were then cultured at 37° C. for 6 days. Cell viability was assessed by Alamar Blue assay: 10 ul of Alamar Blue was added into each well. After 4 hours incubation at 37° C., fluorescence was recorded at excitation 544 and emission 590. GI50 (Growth inhibition) was calculated using GraphPad Prism 4.0 software. Cell growth inhibition data for compounds described herein is tabulated below (Table 2). The GI50 ranges are indicated as “A,” and “B”, for values less than or equal to 0.1 μM: those greater than 0.1 μM and less than or equal to 0.5 μM, respectively.

Assay [5] relates to colon 12 tumor initiating cells. Put plainly: Colon tumor-initiating cell growth inhibition, Alamar Blue assay. The conditions noted are these: 216 h, colon TICs, 9 days culture, read-out: Tumor Initiating Cell Line GI50 Range colon 12.
Source text: as §5, §6

Consider `O=C(N[C@H](c1ccccn1)C1CC1)c1ccc2[nH]nc(-c3ccc(N4CC5(CCOCC5)C4)cc3)c2c1` [Example A18, (S)-3-(4-(7-Oxa-2-azaspiro[3.5]nonan-2-yl)phenyl)-N-(cyclopropyl(pyridin-2-yl)methyl)-1H-indazole-5-carboxamide], for which the GI50 in assay [1] was at most 100 nM; in assay [2] it was at most 100 nM; in assay [3], at most 100 nM; in assay [4] it was 100 to 500 nM; in assay [5], at most 100 nM.

Take `O=C(NC(c1ccccn1)C1CC1)c1ccc2[nH]nc(-c3ccc(N4CC5(COC5)C4)cc3)c2c1` (centres unmarked) [Example A4, 3-(4-(2-Oxa-6-azaspiro[3.3]heptan-6-yl)phenyl)-N-(cyclopropyl(pyridin-2-yl)methyl)-1H-indazole-5-carboxamide]: the GI50 is at most 100 nM in assay [1]; at most 100 nM in assay [2]; at most 100 nM in assay [3]; at most 100 nM in assay [4]; 100 to 500 nM in assay [5].

Turning to `O=C(N[C@@H](c1ccccn1)C1CCCC1)c1ccc2[nH]nc(-c3ccc(N4CC5(COC5)C4)cc3)c2c1` [Example A8, (R)-3-(4-(2-Oxa-6-azaspiro[3.3]heptan-6-yl)phenyl)-N-(cyclopentyl(pyridin-2-yl)methyl)-1H-indazole-5-carboxamide], the GI50 in assay [1], in assay [2], in assay [3], in assay [4] and in assay [5] was at most 100 nM in each case.

For the compound `CC(C)[C@H](NC(=O)c1ccc2[nH]nc(-c3ccc(N4CC5(COC5)C4)cc3)c2c1)c1ccccc1Cl` [Example A12, 3-(4-(2-Oxa-6-azaspiro[3.3]heptan-6-yl)phenyl)-N-((S)-1-(2-chlorophenyl)-2-methylpropyl)-1H-indazole-5-carboxamide], the 50% growth inhibitory concentration (GI50) in assay [1], in assay [2], in assay [3], in assay [4] and in assay [5] was at most 100 nM each time.

For the compound `O=C(N[C@H](c1ccccc1)C1CC1)c1ccc2[nH]nc(-c3ccc(N4CC5(COC5)C4)cc3)c2c1` [Example A10, 3-(4-(2-Oxa-6-azaspiro[3.3]heptan-6-yl)phenyl)-N-((S)-cyclopropyl(phenyl)methyl)-1H-indazole-5-carboxamide], the GI50 in assay [1] was at most 100 nM; in assay [2], 100 to 500 nM; in assay [3], at most 100 nM; in assay [4], 100 to 500 nM; in assay [5], at most 100 nM.

As for `O=C(N[C@H](c1ccccn1)C1CC1)c1ccc2[nH]nc(-c3ccc(N4CC5(COC5)C4)cc3)c2c1` [Example A5, (S)-3-(4-(2-Oxa-6-azaspiro[3.3]heptan-6-yl)phenyl)-N-(cyclopropyl(pyridin-2-yl)methyl)-1H-indazole-5-carboxamide], the GI50 in assay [1] is at most 100 nM; in assay [2], at most 100 nM; in assay [3], at most 100 nM; in assay [4], at most 100 nM; in assay [5] it was 100 to 500 nM.

With `O=C(N[C@H](c1ccccn1)C1CCCC1)c1ccc2[nH]nc(-c3ccc(N4CC5(CCO5)C4)cc3)c2c1` [Example A20, (S)-3-(4-(1-oxa-6-azaspiro[3.3]heptan-6-yl)phenyl)-N-(cyclopentyl(pyridin-2-yl)methyl)-1H-indazole-5-carboxamide], the GI50 in assay [1], in assay [2], in assay [3], in assay [4] and in assay [5] was at most 100 nM in each case.

As for `O=C(NC(c1ccccn1)C1CC1)c1ccc2[nH]nc(-c3ccc(N4CCC5(CC4)COC5)cc3)c2c1` (centres unmarked) [Example A15, 3-(4-(2-Oxa-7-azaspiro[3.5]nonan-7-yl)phenyl)-N-(cyclopropyl(pyridin-2-yl)methyl)-1H-indazole-5-carboxamide], the GI50 in assay [1] was at most 100 nM; in assay [2] it was 100 to 500 nM; in assay [3] it was at most 100 nM; in assay [4], 100 to 500 nM; in assay [5] it was 100 to 500 nM.

On to `CC(C)C(NC(=O)c1ccc2[nH]nc(-c3ccc(N4CC5(COC5)C4)cc3)c2c1)c1ccccc1Cl` (centres unmarked) [Example A11, 3-(4-(2-Oxa-6-azaspiro[3.3]heptan-6-yl)phenyl)-N-(1-(2-chlorophenyl)-2-methylpropyl)-1H-indazole-5-carboxamide], for which the GI50 in assay [1], in assay [2], in assay [3], in assay [4] and in assay [5] was at most 100 nM throughout.

Turning to `O=C(N[C@H](c1ccccn1)C1CCCC1)c1ccc2[nH]nc(-c3ccc(N4CC5(COC5)C4)cc3)c2c1` [Example A2, (S)-3-(4-(2-oxa-6-azaspiro[3.3]heptan-6-yl)phenyl)-N-(cyclopentyl(pyridin-2-yl)methyl)-1H-indazole-5-carboxamide], the GI50 in assay [1], in assay [2], in assay [3], in assay [4] and in assay [5] was at most 100 nM each time.

As for `CC(C)[C@H](NC(=O)c1ccc2[nH]nc(-c3ccc(N4CC5(CC(O)C5)C4)cc3)c2c1)c1ccccc1Cl` [Example A32, (S)-N-(1-(2-Chlorophenyl)-2-methylpropyl)-3-(4-(6-hydroxy-2-azaspiro[3.3]heptan-2-yl)phenyl)-1H-indazole-5-carboxamide], the GI50 in assay [1], in assay [2], in assay [3], in assay [4] and in assay [5] was at most 100 nM in each case.

Consider `Cc1ccccc1C(NC(=O)c1ccc2[nH]nc(-c3ccc(N4CC5(COC5)C4)cc3)c2c1)C1CC1` (centres unmarked) [Example A3, 3-(4-(2-Oxa-6-azaspiro[3.3]heptan-6-yl)phenyl)-N-(cyclopropyl(o-tolyl)methyl)-1H-indazole-5-carboxamide], for which the GI50 is at most 100 nM in assay [1]; 100 to 500 nM in assay [2]; at most 100 nM in assay [3]; 100 to 500 nM in assay [4]; at most 100 nM in assay [5].

Turning to `O=C(NC(c1ncccn1)C1CCCC1)c1ccc2[nH]nc(-c3ccc(N4CC5(COC5)C4)cc3)c2c1` (centres unmarked) [Example A24, 3-(4-(2-oxa-6-azaspiro[3.3]heptan-6-yl)phenyl)-N-(cyclopentyl(pyrimidin-2-yl)methyl)-1H-indazole-5-carboxamide], the GI50 in assay [1], in assay [2], in assay [3], in assay [4] and in assay [5] was at most 100 nM in each case.
